The values that follow come from patent US20240271138A1, “METHODS AND COMPOSITIONS FOR MODULATING STING SIGNALING AND INNATE IMMUNE RESPONSES” (The Broad Institute, Inc., priority 2021, published 2024).

The test system of one data set is type 1 IFN expression. The note with it: cited from earlier work.
The target in another data set is human STING (Homo sapiens, UniProt Q86WV6). The note with it: cited from earlier work.
The test system of the next data set is T-cells. The note with it: cited from earlier work.
Data set [1] relates to STING LBD fusion proteins (PH-S139, 2XFYVE-S139). The data set is described as follows: mNG fluorescence and immunoblots of organelle-targeted STING LBD fusion proteins. The data set is classed as cell-based, human. The note with it: nigericin stimulation. The source says: Upper, concentrated STING is able to mediate TBK1 for trans-phosphorylation. Lower, diluted STING is unable to mediate TBK1's transphosphorylation.
(In general: Immunoblotting shows a protein as a band on a membrane.)

For another data set, the system named is STING-HA. The data set is described as follows: STING-HA degradation in 293T stably expressing STING-HA, HA intracellular staining. Type of data set: cell-based, human. The note with it: 293T STING-HA; cGAMP 6 hours; pre-treatment with U18666A; FIGS. 11G-11H. An excerpt: FIGS. 11A-11H show interaction of ESCRT components with STING. FIGS. 11A-11D show immunofluorescence of CD63, HGS, and STING (FIG. 11A); p62, HGS, and STING (FIG. 11B); LC3B, HGS, and STING (FIG. 11C); p62, CD63, and STING (FIG. 11D) in 293T stably expressing STING-HA and non-stimulated, relative to FIGS. 4A-4D. […] Dashed box represents the cropped region enlarged in the right panel for the +cGAMP condition. Scale bar is 10 μm. One representative field of n≥3 independent fields in n=3 independent experiments. […] One representative experiment of n=3 independent experiments with n=2 technical replicates per experiment. […] Each dot represents an individual replicate **** p<0.0001.
Data was analyzed with FlowJo (BD).

A further data set concerns DNAJC13. Kind of data set: Immunofluorescence of DNAJC13 in 293T cells. Type of data set: cell-based, human. The note with it: 1 μm VPS34-IN1, FIG. 22B. An excerpt: (§1) FIGS. 22A-22F show endosome localization and J domain activity are essential for DNAJC13's function on STING.
Another data set deals with STING. Kind of data set: Immunoblots of U937 and STING-HA 293T cells treated with VPS34-IN1 and cGAMP. The data set is classed as cell-based, human. The note with it: 1 μM VPS34-IN1.
Source text: as §1

[2] abbreviates: sgCTRL cells, cGAMP stimulation, FIGS. 22D-22E.

human STING, sequence (Q86WV6 whole entry H232R): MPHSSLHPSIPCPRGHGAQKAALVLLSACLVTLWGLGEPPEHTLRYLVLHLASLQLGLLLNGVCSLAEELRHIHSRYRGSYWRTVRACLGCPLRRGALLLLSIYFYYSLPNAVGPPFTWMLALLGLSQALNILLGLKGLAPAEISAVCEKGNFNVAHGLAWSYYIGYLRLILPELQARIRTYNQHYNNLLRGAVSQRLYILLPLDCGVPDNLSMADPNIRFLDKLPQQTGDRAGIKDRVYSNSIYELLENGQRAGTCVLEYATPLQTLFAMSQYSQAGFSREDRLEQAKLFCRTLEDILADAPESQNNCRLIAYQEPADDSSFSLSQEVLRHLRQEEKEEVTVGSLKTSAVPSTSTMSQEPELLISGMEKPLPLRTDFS

On to `Cc1ccc2c(=O)c3cccc(CC(=O)O)c3oc2c1C` [DMXAA, 6-dimethylxanthenone-4-acetic acid], for which the “type 1 IFN expression” value in the data set on type 1 IFN expression is given as “induces type 1 IFN expression”. Further, the “binding to human STING versus murine STING” value on human STING is reported as “substantially weaker binding to human STING in comparison to murine STING”. Moreover, the “apoptosis in T-cells” value in the data set on T-cells was “elicits stress pathways that induce apoptosis in T-cells”.
Regarding `CO[C@@H]1C[C@@H](C[C@H]2CC[C@H](C)[C@H]([C@@H](C)C(=O)O)O2)O[C@]2(O[C@](C)([C@H]3CC[C@@](C)([C@@H]4O[C@@H]([C@H]5O[C@@](O)(CO)[C@H](C)C[C@@H]5C)C[C@@H]4C)O3)C[C@H]2C)[C@@H]1C` [Nigericin], in data set [1] (FIG. 17E), the PH-S139 localization entry is listed as “PH-S139 localization change was observed to dispersed vesicles”. For the same compound, the “STING activation (phosphorylation) of fusion proteins” value in data set [1] (FIG. 17F) is “STING activation was observed in PH-S139 and 2XFYVE-S139 but not with mitochondria localized TomS33-S139 or WT STING”.
On to `CCN(CC)CCO[C@H]1CC[C@@]2(C)C(=CC[C@@H]3[C@@H]2CC[C@]2(C)C(=O)CC[C@@H]32)C1` [U18666A], for which the “STING degradation (STING-HA MFI)” value in the data set on STING-HA was “marked reduction in STING degradation”.
In the case of `CC(C)(O)CNc1ncc(-c2ccnc(Nc3ccnc(Cl)c3)n2)c(CC2CC2)n1` [VPS34-IN1], in the data set on DNAJC13, the DNAJC13 endosomal localization entry was “clear diffusion of DNAJC13 from the endosome”. Moreover, the STING induced autophagy entry in the data set on STING (STING-HA 293T, digitonin and cGAMP, FIG. 22E) was “greatly enhanced”. Further, in the data set with STING (setting [2]), the STING degradation result is “enhancement of STING degradation” and the STING phosphorylation result was “strong boost of STING phosphorylation”.
cyclic GMP-AMP [cGAMP]: in the data set on T-cells (exogenous cGAMP), the “T-cell proliferation and T-cell death” value was “impairs T-cell proliferation and can cause T-cell death”.
